Values joined by “and” are separate entries in the source; they are usually repeats but may differ in a detail not shown here. Identical values can stand only once. Like-named read-outs stand apart in the source and are kept apart here.
Key:
[1] = Pharmacokinetics of AS and DHA in rat plasma after single and multiple intravenous AS injections (automated blood sampler, LC-MS/MS);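 for all read-outs here: blood drawn through a jugular vein catheter by an automated sampling system, plasma drug levels measured by LC-MS/MS with positive electrospray ionization against standard curves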; assay type: in vivo, Sprague-Dawley rats; conditions: for AUC0–3 h / Cmin / Degree of Fluctuation = 100% × (Cmax − Cmin)/Cav / Cmax / MRT / Tmax / AUC(0-t) / AUC / half-life / average plasma concentration over 0–72 h (Cav = AUC0–72 h/72): 20 mg/kg i.v. daily for 3 days, male rats; for Cmax / MRT / Tmax / AUC(0-t) / AUC / half-life / average plasma concentration over 0–72 h (Cav = AUC0–72 h/72): male, Sprague-Dawley, rat, plasma, iv, 20 mg/kg; for AUC(0-t): read-out: AUC0–3 h; for AUC: read-out: AUCinfininty
Method: The Culex ABS is a blood sampling and metabolism monitoring machine, which is controlled by its own internal computer. We were successful in evaluating PK for long-term periods by using this system. After jugular vein cannulation, study animals were individually placed in the system, which allowed for a micro-pump to infuse heparinized-saline (10 unit heparin/mL saline) at a rate of 1-2 μL/min to prevent coagulation within the catheter. Culex samples were obtained with precise blood volumes from the study animals and the total volume taken was less than 6% per day and 14% during the entire study period. Blood samples were maintained at 3 °C using Culex's temperature-controlled fractional collector. Plasma was separated from the blood samples and processed for drug extraction.
(§1) Three samples were collected during each phase of absorption, distribution, or elimination for full PK analysis on the first and last dosing days following intravenous bonus injection. Additionally, trough levels (pre-dose) samples were collected in between each dose to follow drug accumulation and a series PK approach (18 samples per animal) was used. Thus, each animal was dosed and plasma samples were obtained for up to three days. A total of 18 (0, 5, 15, 30, 45 min, 1, 2, 3, 6, 24.25, 48.167, 48.25, 48.5, 48.75, 49, 50, 51, and 54 h) samples were collected into cooled vials. 50 μL of blood per sample was collected pre-dosing and after dosing and 100 μL per sample was taken from 0.08 h to 56 h after dosing. During collection, blood samples were added into the vials, which contained dried heparin (50 units) on the bottom of each vial. Thus, a total blood volume of 1.75 mL was obtained from each rat during the three day treatment period (0.85 mL of blood on day 0, 0.1 mL on day 1, and 0.9 mL on day 2), which is 9.3% of the animals total blood volume. Subjects for replicated crossover design were followed FDA recommendation [22] with a 2 week wash out period. During wash-out period, if the catheter was blocked up by any reasons the jugular vein tubes were infused or replaced.
The samples were vortexed vigorously (set at 10 or max setting) for 8–10 sec followed by a 10,000 × g centrifugation at 4 °C for 10 min. Aliquots (approximately 250 μL ea) of the undisturbed supernatants were transferred into a 96-well plate for LC-MS/MS analyses. […] Drugs were chromatographically separated using an acetonitrile/ammonium acetate gradient through a Waters XTerra C18 column (2.1 × 50 mm, 3.5 μm particle size) and corresponding pre-column. Quantification was done using the most abundant daughter ions following positive electrospray ionization. Chromatograms were analyzed using Xcalibur mass spectrometry software. The responses-concentrations standard curves were fitted and weighted.
The area under the curve (AUC) was determined by the linear trapezoidal rule with extrapolation to infinity based on the concentration of the last time point divided by the terminal rate constant. The bioequivalence (BE) evaluation of the two formulations were analyzed by using BE software (WinNonlin 5.2, Pharsight Co. Mountain View, CA. USA) in rats for a NDA application.

[2] = rat, in vivo
From the text: An automated blood sampler (Culex ABS, Bioanalytical Systems, Inc. West Lafayette, IN) was used for rat blood sample collection.
as §1
The area under the curve (AUC) was determined by the linear trapezoidal rule with extrapolation to infinity based on the concentration of the last time point divided by the terminal rate constant.

[3] = more active; cited from earlier work
[4] = cited from earlier work
[5] = Chinese formulation (AS/NaHCO3), Period 1, Day 3
[6] = Chinese formulation (AS/NaHCO3), Period 2, Day 3
[7] = WRAIR formulation (AS/0.3M PBS Buffer), Period 1, Day 3
[8] = WRAIR formulation (AS/0.3M PBS Buffer), Period 2, Day 3
[9] = Chinese formulation (AS/NaHCO3), Period 1, Day 1
[10] = Chinese formulation (AS/NaHCO3), Period 2, Day 1
[11] = WRAIR formulation (AS/0.3M PBS Buffer), Period 1, Day 1
[12] = WRAIR formulation (AS/0.3M PBS Buffer), Period 2, Day 1
[13] = male, Sprague-Dawley, iv, 20 mg/kg, 1 day

AUC0–3 h [1, 5]: 990.8 ± 224.7 ng·h/mL | Cmin [1, 5]: 2.96 ± 2.31 ng/mL | Degree of Fluctuation = 100% × (Cmax − Cmin)/Cav [1, 5]: 860% and 860.1 ± 121.1% | AUC0–3 h [1, 6]: 905.2 ± 188.7 ng·h/mL | Cmin [1, 6]: 4.52 ± 2.25 ng/mL | Degree of Fluctuation = 100% × (Cmax − Cmin)/Cav [1, 6]: 844 ± 64% | time at which Cmax was measured ([1]; Chinese formulation, 20 mg/kg i.v., rats, period 1, day 1): 15 min | time at which Cmax was measured ([1]; Chinese formulation, 20 mg/kg i.v., rats, period 2, day 1): 15 min | time at which Cmax was observed ([1]; Chinese formulation, 20 mg/kg i.v., rats, period 2, day 3): 15 min | Cmin [1, 7]: 6.59 ± 3.06 ng/mL | Cmin [1, 8]: 5.38 ± 3.77 ng/mL | time at which Cmax was measured ([1]; WRAIR formulation, 20 mg/kg i.v., rats, period 1, day 1): 15 min | Cmax [1, 9]: 3360 ng/mL | MRT [1, 9]: 22.8 ± 7.8 min | Tmax [1, 9]: 15 min | AUC(0-t) [1, 9]: 1570 ng·h/mL | AUC [1, 9]: 1570 ± 350 ng·h/mL | half-life ([1]; Chinese formulation (AS/NaHCO3), Period 1, Day 1, read-out: t1/2 distribution (converted)): 7.2 ± 1.2 min | half-life ([1]; Chinese formulation (AS/NaHCO3), Period 1, Day 1, read-out: t1/2 elimination (converted)): 45 ± 6 min | Cmax [1, 5]: 2780 ng/mL | MRT [1, 5]: 21 ± 3.6 min | Tmax [1, 5]: 10.2 ± 5.4 min | average plasma concentration over 0–72 h (Cav = AUC0–72 h/72) [1, 5]: 330 ng·h/mL | AUC(0-t) [1, 5]: 991 ng·h/mL | AUC [1, 5]: 994 ± 225 ng·h/mL | half-life ([1]; Chinese formulation (AS/NaHCO3), Period 1, Day 3, read-out: t1/2 distribution (converted)): 5.4 ± 0.6 min | half-life ([1]; Chinese formulation (AS/NaHCO3), Period 1, Day 3, read-out: t1/2 elimination (converted)): 40.8 ± 9 min | Cmax [1, 10]: 2690 ng/mL | MRT [1, 10]: 27.6 ± 8.4 min | Tmax [1, 10]: 15 min | AUC(0-t) [1, 10]: 1220 ng·h/mL | AUC [1, 10]: 1230 ± 266 ng·h/mL | half-life ([1]; Chinese formulation (AS/NaHCO3), Period 2, Day 1, read-out: t1/2 distribution (converted)): 7.2 ± 1.2 min | half-life ([1]; Chinese formulation (AS/NaHCO3), Period 2, Day 1, read-out: t1/2 elimination (converted)): 43.8 ± 10.2 min | Cmax [1, 6]: 2450 ng/mL | MRT [1, 6]: 22.8 ± 1.2 min | Tmax [1, 6]: 15 min | AUC(0-t) [1, 6]: 905 ng·h/mL | AUC [1, 6]: 910 ± 188 ng·h/mL | half-life ([1]; Chinese formulation (AS/NaHCO3), Period 2, Day 3, read-out: t1/2 distribution (converted)): 4.8 ± 0.6 min | half-life ([1]; Chinese formulation (AS/NaHCO3), Period 2, Day 3, read-out: t1/2 elimination (converted)): 43.2 ± 7.2 min | Cmax [1, 11]: 3150 ng/mL | MRT [1, 11]: 23.4 ± 4.8 min | Tmax [1, 11]: 15 min | AUC(0-t) [1, 11]: 1460 ng·h/mL | AUC [1, 11]: 1460 ± 211 ng·h/mL | half-life ([1]; WRAIR formulation (AS/0.3M PBS Buffer), Period 1, Day 1, read-out: t1/2 distribution (converted)): 7.2 ± 0.6 min | half-life ([1]; WRAIR formulation (AS/0.3M PBS Buffer), Period 1, Day 1, read-out: t1/2 elimination (converted)): 58.8 ± 8.4 min | Cmax [1, 7]: 2810 ng/mL | MRT [1, 7]: 20.4 ± 6.6 min | Tmax [1, 7]: 15 min | average plasma concentration over 0–72 h (Cav = AUC0–72 h/72) [1, 7]: 367 ng·h/mL | AUC(0-t) [1, 7]: 1100 ng·h/mL | AUC [1, 7]: 1110 ± 174 ng·h/mL | half-life ([1]; WRAIR formulation (AS/0.3M PBS Buffer), Period 1, Day 3, read-out: t1/2 distribution (converted)): 5.4 ± 0.6 min | half-life ([1]; WRAIR formulation (AS/0.3M PBS Buffer), Period 1, Day 3, read-out: t1/2 elimination (converted)): 54 ± 7.2 min | Cmax [1, 12]: 3520 ng/mL | MRT [1, 12]: 24 ± 2.4 min | Tmax [1, 12]: 15 min | AUC(0-t) [1, 12]: 1510 ng·h/mL | AUC [1, 12]: 1510 ± 293 ng·h/mL | half-life ([1]; WRAIR formulation (AS/0.3M PBS Buffer), Period 2, Day 1, read-out: t1/2 distribution (converted)): 8.4 ± 0.6 min | half-life ([1]; WRAIR formulation (AS/0.3M PBS Buffer), Period 2, Day 1, read-out: t1/2 elimination (converted)): 54.6 ± 4.2 min | Cmax [1, 8]: 3120 ng/mL | MRT [1, 8]: 23.4 ± 1.8 min | Tmax [1, 8]: 15 min | AUC(0-t) [1, 8]: 1040 ng·h/mL | AUC [1, 8]: 1050 ± 160 ng·h/mL | half-life ([1]; WRAIR formulation (AS/0.3M PBS Buffer), Period 2, Day 3, read-out: t1/2 distribution (converted)): 5.4 ± 8.4 min | half-life ([1]; WRAIR formulation (AS/0.3M PBS Buffer), Period 2, Day 3, read-out: t1/2 elimination (converted)): 52.8 ± 8.4 min | 90% CI for the difference between the two i.v. formulations, AUC1–3D ([2]; Sprague-Dawley, iv): 79.11–120.89% | 90% CI of the difference between the two intravenous formulations, AUCD3 ([2]; Sprague-Dawley, iv, 3 day): 71.32–128.67% | 90% CI for T/R, Lower, AUCD1 [2, 13]: 82.04% | 90% CI for T/R, Upper, AUCD1 [2, 13]: 117.96% | BE (bioequivalence), AUCD1 [2]: Yes | BE (bioequivalence), Cmax D1 [2]: No | 90% CI between the two intravenous formulations, AUC0–3 h ([2]; iv): 82.04–117.96%
SMILES: C[C@H]1[C@@H](O)O[C@@H]2O[C@@]3(C)CC[C@H]4[C@H](C)CC[C@@H]1[C@@]24OO3 [DHA, dihydroartemisinin]
activity compared with other artemisinin derivatives [3]: 3-5 fold | elimination half-life (t1/2) [4]: 40 to 60 min
